{"source": "patent US20060269583A1", "about": "“Process and composition for treating wood” (priority 2005, published 2006)", "origin": "cited, not measured here", "settings": "in about 10 years under a given set of field conditions", "data": [{"substance": "copper amine carbonate complex", "values": [{"measurement": "copper removed by leaching", "value": "≤ 80", "unit": "%"}]}]}
